Experimental data taken from patent US9732047B2, “N-alkoxyamide conjugates as imaging agents” (Lantheus Medical Imaging, Inc., priority 2008, dated 2017).
Read-outs that look alike come from different tables or passages of the source.

Legend:
aorta [1] = settings: 60 min post injection; for aorta uptake (% ID/g): ApoE mice on high-fat diet 35-42 weeks, 0.3-0.4 mCi/kg bolus via tail vein; for aorta:blood / aorta:heart: ApoE mice, uptake ratio
Description: The apolipoprotein E (ApoE) knockout mouse is a model of hypercholesterolemia that develops atherosclerotic lesions in the brachiocephalic artery, the aortic arch and the abdominal aorta. Mice were fed a high-fat diet to accelerate plaque formation and compounds were tested in the mice between 35-42 weeks on diet. Test compounds were administered at 0.3-0.4 mCi/kg to anesthetized mice in a single, bolus injection via the tail vein. Blood samples were collected via the tail between 0-30 min post injection for pharmacokinetic analysis and mice were euthanized by CO2 at 60 min for tissue harvesting. The aorta was first flushed with saline through the left ventricle exiting via the femoral vein then removed from the heart to the renal bifurcation; additional biological samples were also collected (blood, muscle, liver, kidney, bile, urine, heart, femur, reproductive organ, lung, spleen and innominate artery). All samples were weighed and assayed for radioactivity; uptake is expressed as a percentage of injected dose per gram of tissue (% ID/g).

[2] = tested on: Aorta bearing atherosclerotic plaque; test: Ex-vivo blood vessel binding assay; parameters: species or system New Zealand white rabbits; settings: 153Gd-labeled compound 0.135 μCi in PBS, 2 h at 37° C., plaque-bearing rabbit aorta sections; percentage of initial activity
Description: Aorta bearing atherosclerotic plaque was obtained from New Zealand white rabbits that were balloon stripped along the abdominal aorta and placed on a high fat diet (0.5% cholesterol) for 16-22 weeks. Vascular injury was produced with a 4-F Fogarty catheter along the abdominal aorta and right iliofemoral artery. This procedure generates an accelerated complex lesion development with a lipid rich core covered by a fibrous cap in rabbits. Harvested aorta sections (0.5 cm) were incubated with 0.135 μCi of ^153Gd-labeled compound diluted in phosphate buffered saline (450 μL) for 2 h at 37° C. The supernatant was removed and analyzed by HPLC to assay compound stability. The tissue section was then washed with phosphate buffered saline (3×10 mL), then resuspended (10 mL) and incubated at 37° C. an additional 1 h. The supernatant was then removed, the washing process repeated and the tissue finally counted on a gamma counter. The amount of compound bound to the tissue was determined as a percentage of the initial activity according to the following formula: […]

aorta [3] = settings: 60 min post injection; for aorta (% ID/g ± SD): 0.01-0.05 mCi/kg bolus via marginal ear vein
Description: Atherosclerosis was induced in New Zealand White male rabbits (3 kg) with aortic balloon endothelial injury (vide supra) followed by feeding a 0.5% cholesterol diet for 22 weeks. Test compounds were administered at 0.01-0.05 mCi/kg to anesthetized rabbits in a single, bolus injection via the marginal ear vein. Blood samples were collected from the central ear artery at 0, 2, 5, 7, 10, 15, 30 and 60 min post injection. Rabbits were euthanized at 60 min post injection for tissue harvesting (blood, muscle, bile, urine, kidney, liver, spleen, heart, lung, colon, small intestine, stomach, testes and in some cases, sternum, ligament and right ear). Abdominal aorta (upper, middle, and lower) and left and right femoral arteries were also collected. All samples were weighed and assayed for radioactivity; uptake is expressed as percentage of injected dose per gram of tissue (% ID/g).

[4] = control rabbit (non-plaque bearing)

SMILES | aorta uptake (% ID/g) (aorta [1]) | aorta:blood (aorta [1]) | aorta:heart (aorta [1]) | % bound [2] [%] | aorta (% ID/g ± SD) (aorta [3]; plaque rabbit) [% ID/g] | aorta:blood (aorta [3]; plaque rabbit) | aorta:heart (aorta [3]; plaque rabbit) | aorta (% ID/g ± SD) (aorta [3]; [4]) [% ID/g] | aorta:blood (aorta [3]; control rabbit) | aorta:heart (aorta [3]; control rabbit)
CC(C)C[C@@H]([NH3+])C(=O)NOCCCCCCNC(=O)CN(CCN(CC(=O)[O-])CC(=O)[O-])CCN(CC(=O)[O-])CC(=O)[O-].[153Gd+3] [Example 40] | 3.6 ± 0.3 | 3.4 | 8.4 | 7.2 | – | – | – | – | – | –
[153Gd+3].[NH3+][C@H](CCc1ccccc1)C(=O)NOCCc1ccc(CNC(=O)CN(CCN(CC(=O)[O-])CC(=O)[O-])CCN(CC(=O)[O-])CC(=O)[O-])cc1 [Example 50] | 10.4 ± 2.4 | 3.7 | 13.5 | 24.2 | – | – | – | – | – | –
CC(C)C[C@@H]([NH3+])C(=O)NOCc1ccc(CNC(=O)CN(CCN(CC(=O)[O-])CC(=O)[O-])CCN(CC(=O)[O-])CC(=O)[O-])cc1.[153Gd+3] [Example 56] | 8.5 ± 1.8 | 5.5 | 21.2 | – | – | – | – | – | – | –
N[C@H](Cc1ccc(CNC(=O)CN2CCN(CC(=O)[O-])CCN(CC(=O)[O-])CCN(CC(=O)[O-])CC2)cc1)C(=O)NOCc1ccccc1.[153Gd+3] [Example 55] | 3.0 ± 2.3 | 1.0 | 8.8 | – | – | – | – | – | – | –
[153Gd+3].[NH3+][C@H](CCc1ccccc1)C(=O)NOCc1ccc(CNC(=O)CN(CCN(CC(=O)[O-])CC(=O)[O-])CCN(CC(=O)[O-])CC(=O)[O-])cc1 [Example 37] | 10.4 ± 1.4 | 4.2 | 16.2 | 12.8 | 0.087 ± 0.010 | 2.1 | 4.6 | – | – | –
CC(C)C[C@@H]([NH3+])C(=O)NOc1ccc(CNC(=O)CN(CCN(CC(=O)[O-])CC(=O)[O-])CCN(CC(=O)[O-])CC(=O)[O-])cc1.[153Gd+3] [Example 46] | 0.9 ± 0.2 | 1.1 | 4.9 | 0.9 | – | – | – | – | – | –
CONC(=O)[C@H](N)Cc1ccc(CNC(=O)CN2CCN(CC(=O)[O-])CCN(CC(=O)[O-])CCN(CC(=O)[O-])CC2)cc1.[153Gd+3] [Example 54] | 2.5 ± 0.5 | 1.2 | 5.3 | – | – | – | – | – | – | –
O=C([O-])CN1CCN(CC(=O)[O-])CCN(CC(=O)NCc2ccc(CNC(CCc3ccccc3)C(=O)NOCc3ccccc3)cc2)CCN(CC(=O)[O-])CC1.[153Gd+3] (centres unmarked) [Example 53] | 1.5 ± 0.1 | 0.8 | 4.2 | – | – | – | – | – | – | –
[153Gd+3].[NH3+][C@H](CCc1ccccc1)C(=O)NOCCCc1ccc(CNC(=O)CN(CCN(CC(=O)[O-])CC(=O)[O-])CCN(CC(=O)[O-])CC(=O)[O-])cc1 [Example 44] | 8.4 ± 0.2 | 3.2 | 12.5 | 27.3 | – | – | – | – | – | –
[153Gd+3].[NH3+][C@H](CC1CCCCC1)C(=O)NOCCCCCCNC(=O)CN(CCN(CC(=O)[O-])CC(=O)[O-])CCN(CC(=O)[O-])CC(=O)[O-] [Example 42] | 8.1 ± 1.1 | 8.0 | 18.0 | 17.9 | – | – | – | – | – | –
[153Gd+3].[NH3+][C@H](CCc1ccccc1)C(=O)NOc1ccc(CNC(=O)CN(CCN(CC(=O)[O-])CC(=O)[O-])CCN(CC(=O)[O-])CC(=O)[O-])cc1 [Example 47] | 4.7 ± 0.4 | 0.7 | 4.8 | 6.6 | – | – | – | – | – | –
[153Gd+3].[NH3+][C@H](CCc1ccccc1)C(=O)NOCCCCCCNC(=O)CN(CCN(CC(=O)[O-])CC(=O)[O-])CCN(CC(=O)[O-])CC(=O)[O-] [Example 45] | 9.0 ± 0.2 | 2.1 | 12.1 | 14.4 | – | – | – | – | – | –
[153Gd+3].[NH3+][C@H](Cc1cc2ccccc2[nH]1)C(=O)NOCc1ccc(CNC(=O)CN(CCN(CC(=O)[O-])CC(=O)[O-])CCN(CC(=O)[O-])CC(=O)[O-])cc1 [Example 61] | 19.3 ± 0.2 | 10.9 | 20.4 | 19.9 | – | – | – | – | – | –
[153Gd+3].[NH3+][C@@H](CCc1ccccc1)C(=O)NOCc1ccc(CNC(=O)CN(CCN(CC(=O)[O-])CC(=O)[O-])CCN(CC(=O)[O-])CC(=O)[O-])cc1 [Example 39] | 6.1 ± 0.4 | 11.4 | 13.6 | 15.8 | – | – | – | – | – | –
N[C@H](CCc1ccccc1)C(=O)NOCc1ccc(CNC(=O)CN2CCN(CC(=O)[O-])CCN(CC(=O)[O-])CCN(CC(=O)[O-])CC2)cc1.[153Gd+3] [Example 38] | 11.6 ± 0.8 | 5.5 | 20.5 | 19.1 | 0.103 ± 0.002 | 2.4 | 5.1 | 0.196 ± 0.023 | 5.1 | 11.0
N[C@H](Cc1ccc2ccccc2c1)C(=O)NOCc1ccc(CNC(=O)CN2CCN(CC(=O)[O-])CCN(CC(=O)[O-])CCN(CC(=O)[O-])CC2)cc1.[153Gd+3] [Example 60] | 18.4 ± 2.4 | 9.8 | 25.2 | 30.9 | 0.108 ± 0.012 | 2.4 | 4.0 | 0.187 ± 0.022 | 3.8 | 6.4
[153Gd+3].[NH3+][C@H](Cc1c[nH]c2ccccc12)C(=O)NOCCCc1ccc(CNC(=O)CN(CCN(CC(=O)[O-])CC(=O)[O-])CCN(CC(=O)[O-])CC(=O)[O-])cc1 [Example 43] | 6.0 ± 1.7 | 2.7 | 9.0 | 27.1 | – | – | – | – | – | –
[153Gd+3].[NH3+][C@H](Cc1ccccc1)C(=O)NOCc1ccc(CNC(=O)CN(CCN(CC(=O)[O-])CC(=O)[O-])CCN(CC(=O)[O-])CC(=O)[O-])cc1 [Example 58] | 6.1 ± 0.2 | 6.5 | 17.9 | 7.3 | – | – | – | – | – | –
[153Gd+3].[NH3+][C@H](Cc1ccc(O)cc1)C(=O)NOCc1ccc(CNC(=O)CN(CCN(CC(=O)[O-])CC(=O)[O-])CCN(CC(=O)[O-])CC(=O)[O-])cc1 [Example 63] | 8.7 ± 0.4 | 6.0 | 13.0 | 11.7 | – | – | – | – | – | –
CONC(=O)C(CCc1ccccc1)NCc1ccc(CNC(=O)CN2CCN(CC(=O)[O-])CCN(CC(=O)[O-])CCN(CC(=O)[O-])CC2)cc1.[153Gd+3] (centres unmarked) [Example 52] | 6.1 ± 1.2 | 2.0 | 9.2 | 6.9 | – | – | – | – | – | –
CC(C)C[C@@H](N)C(=O)NOCc1ccc(CNC(=O)CN2CCN(CC(=O)[O-])CCN(CC(=O)[O-])CCN(CC(=O)[O-])CC2)cc1.[153Gd+3] [Example 59] | 8.2 ± 1.3 | 3.7 | 15.4 | 5.2 | – | – | – | – | – | –
[153Gd+3].[NH3+][C@H](Cc1ccc2ccccc2c1)C(=O)NOCc1ccc(CNC(=O)CN(CCN(CC(=O)[O-])CC(=O)[O-])CCN(CC(=O)[O-])CC(=O)[O-])cc1 [Example 57] | 11.1 ± 0.3 | 5.0 | 17.8 | 30.6 | – | – | – | – | – | –
[153Gd+3].[NH3+][C@H](Cc1ccc(-c2ccccc2)cc1)C(=O)NOCCCCCCNC(=O)CN(CCN(CC(=O)[O-])CC(=O)[O-])CCN(CC(=O)[O-])CC(=O)[O-] [Example 41] | 2.0 ± 0.1 | 7.2 | 20.4 | 28.7 | – | – | – | – | – | –
CC(C)C[C@@H]([NH3+])C(=O)NOCCc1ccc(CNC(=O)CN(CCN(CC(=O)[O-])CC(=O)[O-])CCN(CC(=O)[O-])CC(=O)[O-])cc1.[153Gd+3] [Example 49] | 4.9 ± 0.2 | 5.5 | 22.9 | 9.1 | – | – | – | – | – | –
